Laboratory results as given in article PMC12281487, “Discovery and Validation of a Novel Class of Necroptosis Inhibitors Targeting RIPK1” (ACS Chemical Biology, 2025).

How the values were obtained:
[1] = test system: RIPK1 Ser166 phosphorylation; assay: Western blot of RIPK1 Ser166 phosphorylation in I2.1 cells; type: cell-based, human; settings: prior treatment with 10 μM compound
Procedure: All compound treatments were performed with a preprepared 1000× stock of the desired concentration in DMSO and added directly to the relevant plate, with a final concentration of 0.1% DMSO on the cells. TNF (final concentration 575 pM) was added to induce necroptosis, the cells incubated for 4 h and harvested.
Cells were transferred to a microcentrifuge tube and centrifuged at 200g for 5 min, and media were removed. Cells were washed with PBS and lysed with 100 μL of lysis buffer (radioimmunoprecipitation assay lysis buffer, Sigma-Aldrich, R0278) supplemented with 1× phosphatase inhibitor cocktail 2 (Sigma, P5726) and 1× complete EDTA-free protease inhibitor cocktail (Sigma, […])) on ice for 30 min. The lysate was collected by centrifugation at 17,000g, 4 °C for 5 min, and the lysate was transferred to a new microcentrifuge tube. Protein concentration was determined using the DC Protein Assay (Bio-Rad) in a 96-well plate as per the manufacturer’s instructions and subsequently adjusted to 1 mg mL^–1 using lysis buffer. Samples were prepared by adding 4 μL of 4× loading buffer (Biorad, 161-0747) containing β-mercaptoethanol to 12 μL of protein sample and boiling at 95 °C for 10 min. 14 μL of each sample was loaded onto a 4–15% Mini-PROTEAN TGX precast gel (Biorad, 456-1086) and run in 1× running buffer (0.25 M Tris, 0.2 M glycine, 0.1% (w/v) SDS) for 1.15 h at 130 V. Either 2 μL of precision plus protein all blue prestained protein standards (Bio-Rad, 1610373) or precision plus protein dual color standards (Bio-Rad, 1610374) was used in at least one well.
Proteins were transferred onto a nitrocellulose membrane (GE Healthcare) using the Trans-Blot Turbo Transfer System (Biorad, 1704150) at 2.5 A and 25 V for 7 min. The membrane was stained with Ponceau S to confirm protein transfer prior to blocking with 5% (w/v) nonfat dried skimmed milk in TBS-T (1× Tris-buffered saline, 0.1% (v/v) Tween-20) at rt for 1 h. Staining with the desired primary antibody in 5% (w/v) nonfat dried skimmed milk in TBS-T was performed overnight at 4 °C. The blot was washed with TBS-T at rt (3 × 5 min) and stained with secondary antibody in 5% (w/v) nonfat dried skimmed milk in TBS-T for 1 h at rt. The blot was washed with TBS-T at rt (3 × 5 min), visualized with Immobilon Crescendo Western HRP substrate, and imaged using ImageQuant LAS-4000 Imaging System (Fujifilm), and the contrast normalized in Fiji.

C57BL/6J mice = assay: TNF-induced SIRS murine model; settings: 5 mg/kg i.v. 15 min before TNF 0.5 mg/kg i.v., 3 mice per group
Procedure: Male C57BL/6J mice of 18–25 g were used at the age of 6–8 weeks. Three animals were included in each experimental group. All animal experiments were carried out with the permission of the local animal ethical committee in accordance with the EU Directive (2010/63/EU), Portuguese laws (DL113/2013, 2880/2015, 260/2016), and all relevant legislations. Animals received humane care in a temperature-controlled environment with a 12 h light–dark cycle and ad libitum access to pelleted chow and water, complying with the Institute’s guidelines, and as outlined in the “Guide for the Care and Use of Laboratory Animals” prepared by the National Academy of Sciences and published by the National Institutes of Health (NIH publication 86-23 revised 1985). […] TNF was diluted in sterile PBS. […] All injections were administered intravenously (i.v.).

## CN1C(=O)C(Cc2c[nH]c3ccccc23)NC1=S (centres unmarked) [Nec-1, Necrostatin 1]
[1]
  phosphorylation of RIPK1 Ser166 after TNF: blocked
C57BL/6J mice
  protection from TNF-induced mortality (survival): partially protected
